Assay results: ChEMBL document CHEMBL5291721, “A preclinical secondary pharmacology resource illuminates target-adverse drug reaction associations of marketed drugs” (Nat Commun, 2023)

Key:
[1] = target: Voltage-gated inwardly rectifying potassium channel KCNH2 (Homo sapiens, UniProt Q12809); type: functional; conditions: read-out: AC50
[2] = target: Acetylcholinesterase (Homo sapiens, UniProt P22303); type: functional
[3] = target: T1, Alpha-2A adrenergic receptor (Homo sapiens, UniProt P08913)
T1 sequence (P08913 whole entry): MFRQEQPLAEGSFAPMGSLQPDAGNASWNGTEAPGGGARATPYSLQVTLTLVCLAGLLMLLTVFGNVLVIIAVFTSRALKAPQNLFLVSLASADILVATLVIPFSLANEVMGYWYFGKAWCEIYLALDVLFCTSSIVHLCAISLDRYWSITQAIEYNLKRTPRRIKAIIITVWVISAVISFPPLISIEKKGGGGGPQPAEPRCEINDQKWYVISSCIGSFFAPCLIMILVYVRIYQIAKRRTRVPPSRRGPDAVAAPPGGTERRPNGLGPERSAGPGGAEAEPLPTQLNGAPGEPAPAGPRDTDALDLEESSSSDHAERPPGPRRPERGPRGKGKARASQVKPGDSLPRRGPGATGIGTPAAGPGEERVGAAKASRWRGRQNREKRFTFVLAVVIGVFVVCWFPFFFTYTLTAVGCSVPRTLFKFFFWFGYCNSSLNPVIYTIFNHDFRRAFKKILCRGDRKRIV

[4] = target: T2, Muscarinic acetylcholine receptor M2 (Homo sapiens, UniProt P08172)
T2 sequence (P08172 whole entry): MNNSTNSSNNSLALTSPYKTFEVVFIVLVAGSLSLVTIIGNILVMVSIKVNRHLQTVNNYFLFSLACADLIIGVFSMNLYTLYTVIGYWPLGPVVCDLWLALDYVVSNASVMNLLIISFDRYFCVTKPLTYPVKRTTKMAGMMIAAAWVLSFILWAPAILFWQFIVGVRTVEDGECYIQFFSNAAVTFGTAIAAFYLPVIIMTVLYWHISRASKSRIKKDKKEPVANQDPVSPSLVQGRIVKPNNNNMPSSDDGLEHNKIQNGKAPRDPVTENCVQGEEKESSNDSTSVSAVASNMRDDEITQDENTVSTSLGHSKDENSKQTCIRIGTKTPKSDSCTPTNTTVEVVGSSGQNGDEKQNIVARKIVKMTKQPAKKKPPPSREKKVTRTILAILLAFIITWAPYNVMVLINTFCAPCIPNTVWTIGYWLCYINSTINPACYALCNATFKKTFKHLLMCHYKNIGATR

[5] = target: D(3) dopamine receptor (Homo sapiens, UniProt P35462)
Chain of D(3) dopamine receptor (P35462 whole entry): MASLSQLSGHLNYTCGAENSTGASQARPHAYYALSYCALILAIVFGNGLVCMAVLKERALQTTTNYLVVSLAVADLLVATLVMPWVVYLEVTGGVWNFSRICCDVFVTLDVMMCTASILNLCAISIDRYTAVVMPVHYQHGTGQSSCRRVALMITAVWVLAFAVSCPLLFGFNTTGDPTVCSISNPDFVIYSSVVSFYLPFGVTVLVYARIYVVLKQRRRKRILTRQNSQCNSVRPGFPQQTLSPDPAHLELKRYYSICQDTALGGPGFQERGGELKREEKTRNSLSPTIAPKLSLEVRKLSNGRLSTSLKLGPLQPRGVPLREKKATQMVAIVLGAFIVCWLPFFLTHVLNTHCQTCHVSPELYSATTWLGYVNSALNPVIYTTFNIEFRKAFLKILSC

[6] = target: T3, Estrogen receptor (Homo sapiens, UniProt P03372)
T3 sequence (P03372 whole entry): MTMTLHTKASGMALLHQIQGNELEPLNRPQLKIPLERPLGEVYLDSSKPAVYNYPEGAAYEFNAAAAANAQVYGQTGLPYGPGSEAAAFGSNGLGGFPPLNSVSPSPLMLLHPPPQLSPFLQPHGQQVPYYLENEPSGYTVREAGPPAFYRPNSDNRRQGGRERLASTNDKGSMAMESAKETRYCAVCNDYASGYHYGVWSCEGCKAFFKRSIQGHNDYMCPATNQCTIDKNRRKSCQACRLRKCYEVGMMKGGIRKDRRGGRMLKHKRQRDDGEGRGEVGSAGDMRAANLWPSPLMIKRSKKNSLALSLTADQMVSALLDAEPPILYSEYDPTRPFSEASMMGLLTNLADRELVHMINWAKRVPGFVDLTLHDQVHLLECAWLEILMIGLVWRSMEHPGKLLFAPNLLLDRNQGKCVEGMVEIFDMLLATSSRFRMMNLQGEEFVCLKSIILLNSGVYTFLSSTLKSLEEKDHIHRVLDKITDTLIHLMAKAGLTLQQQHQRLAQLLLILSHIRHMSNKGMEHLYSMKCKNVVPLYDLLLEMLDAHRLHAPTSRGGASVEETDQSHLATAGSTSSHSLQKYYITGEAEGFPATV

[7] = target: Mu-type opioid receptor (Homo sapiens, UniProt P35372)
Chain of Mu-type opioid receptor (P35372 whole entry): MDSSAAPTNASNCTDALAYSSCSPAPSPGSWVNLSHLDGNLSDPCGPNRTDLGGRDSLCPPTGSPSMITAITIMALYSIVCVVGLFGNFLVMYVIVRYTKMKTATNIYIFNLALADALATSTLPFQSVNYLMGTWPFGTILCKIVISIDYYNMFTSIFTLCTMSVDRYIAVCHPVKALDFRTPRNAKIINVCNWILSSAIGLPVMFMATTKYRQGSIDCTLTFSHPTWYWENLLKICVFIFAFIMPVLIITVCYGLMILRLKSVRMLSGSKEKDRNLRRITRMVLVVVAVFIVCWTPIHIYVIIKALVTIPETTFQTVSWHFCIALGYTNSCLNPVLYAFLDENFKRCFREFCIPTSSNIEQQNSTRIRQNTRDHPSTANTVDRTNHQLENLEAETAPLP

[8] = target: cGMP-inhibited 3',5'-cyclic phosphodiesterase 3A (Homo sapiens, UniProt Q14432); type: functional
Chain of cGMP-inhibited 3',5'-cyclic phosphodiesterase 3A (Q14432 whole entry): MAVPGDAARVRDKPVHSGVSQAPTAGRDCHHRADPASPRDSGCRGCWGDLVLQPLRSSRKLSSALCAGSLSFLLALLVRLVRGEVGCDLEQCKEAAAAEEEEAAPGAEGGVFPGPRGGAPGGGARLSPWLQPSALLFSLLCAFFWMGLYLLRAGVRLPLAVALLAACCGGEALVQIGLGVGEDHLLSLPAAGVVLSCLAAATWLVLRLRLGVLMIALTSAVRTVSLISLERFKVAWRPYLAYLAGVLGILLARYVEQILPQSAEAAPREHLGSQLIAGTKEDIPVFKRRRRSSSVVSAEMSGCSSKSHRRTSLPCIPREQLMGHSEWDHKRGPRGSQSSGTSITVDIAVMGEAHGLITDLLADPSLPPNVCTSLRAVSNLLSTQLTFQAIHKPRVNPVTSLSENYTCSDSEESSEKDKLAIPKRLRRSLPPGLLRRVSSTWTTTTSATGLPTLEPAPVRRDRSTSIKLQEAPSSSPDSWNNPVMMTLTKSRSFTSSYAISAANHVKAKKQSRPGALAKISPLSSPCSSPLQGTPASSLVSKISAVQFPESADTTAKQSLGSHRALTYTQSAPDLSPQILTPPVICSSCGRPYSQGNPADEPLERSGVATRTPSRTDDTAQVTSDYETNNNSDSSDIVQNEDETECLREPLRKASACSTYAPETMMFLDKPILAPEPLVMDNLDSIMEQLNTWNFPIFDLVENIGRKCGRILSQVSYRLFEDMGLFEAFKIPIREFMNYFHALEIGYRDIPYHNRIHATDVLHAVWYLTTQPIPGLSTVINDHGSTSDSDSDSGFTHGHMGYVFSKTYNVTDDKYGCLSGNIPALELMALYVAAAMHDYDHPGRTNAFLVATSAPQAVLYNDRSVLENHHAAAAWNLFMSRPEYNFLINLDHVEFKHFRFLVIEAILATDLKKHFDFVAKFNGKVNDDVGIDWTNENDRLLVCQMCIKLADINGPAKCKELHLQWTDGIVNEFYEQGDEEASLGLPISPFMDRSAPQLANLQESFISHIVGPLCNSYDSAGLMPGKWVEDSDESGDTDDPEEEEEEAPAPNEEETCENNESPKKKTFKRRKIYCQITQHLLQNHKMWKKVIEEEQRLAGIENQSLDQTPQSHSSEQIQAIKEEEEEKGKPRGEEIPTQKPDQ

[9] = target: Sodium-dependent noradrenaline transporter (Homo sapiens, UniProt P23975)
Chain of Sodium-dependent noradrenaline transporter (P23975 whole entry): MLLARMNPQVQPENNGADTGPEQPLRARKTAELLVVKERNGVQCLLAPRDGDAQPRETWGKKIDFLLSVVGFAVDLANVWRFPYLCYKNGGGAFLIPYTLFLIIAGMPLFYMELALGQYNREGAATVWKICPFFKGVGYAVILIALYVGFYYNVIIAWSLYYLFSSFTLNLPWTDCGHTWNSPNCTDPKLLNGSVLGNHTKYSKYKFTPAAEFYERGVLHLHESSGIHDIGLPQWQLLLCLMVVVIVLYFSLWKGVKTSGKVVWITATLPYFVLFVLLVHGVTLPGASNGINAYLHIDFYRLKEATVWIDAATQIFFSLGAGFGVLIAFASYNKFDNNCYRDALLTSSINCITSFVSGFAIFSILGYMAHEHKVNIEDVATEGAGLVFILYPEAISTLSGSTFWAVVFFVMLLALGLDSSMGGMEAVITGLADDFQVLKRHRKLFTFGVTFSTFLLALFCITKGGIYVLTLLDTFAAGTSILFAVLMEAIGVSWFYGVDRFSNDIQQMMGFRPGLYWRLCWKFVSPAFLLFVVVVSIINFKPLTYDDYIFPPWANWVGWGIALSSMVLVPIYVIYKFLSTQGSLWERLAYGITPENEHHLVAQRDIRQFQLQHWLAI

[10] = target: T4, Thromboxane A2 receptor (Homo sapiens, UniProt P21731); type: functional, cell-based
T4 sequence (P21731 whole entry): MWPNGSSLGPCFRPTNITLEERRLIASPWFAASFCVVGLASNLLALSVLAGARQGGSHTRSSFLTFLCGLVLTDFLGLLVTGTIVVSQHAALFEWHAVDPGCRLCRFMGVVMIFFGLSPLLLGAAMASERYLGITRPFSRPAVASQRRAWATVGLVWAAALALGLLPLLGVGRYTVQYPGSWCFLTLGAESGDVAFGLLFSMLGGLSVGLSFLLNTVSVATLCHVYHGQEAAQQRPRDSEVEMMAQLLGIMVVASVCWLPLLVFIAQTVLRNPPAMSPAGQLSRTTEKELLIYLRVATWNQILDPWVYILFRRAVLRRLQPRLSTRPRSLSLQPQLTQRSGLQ

[11] = target: T4, Thromboxane A2 receptor; type: functional, cell-based; remark: listed apart in the source
[12] = target: T5, Adenosine receptor A3 (Homo sapiens, UniProt P0DMS8)
T5 sequence (P0DMS8 whole entry): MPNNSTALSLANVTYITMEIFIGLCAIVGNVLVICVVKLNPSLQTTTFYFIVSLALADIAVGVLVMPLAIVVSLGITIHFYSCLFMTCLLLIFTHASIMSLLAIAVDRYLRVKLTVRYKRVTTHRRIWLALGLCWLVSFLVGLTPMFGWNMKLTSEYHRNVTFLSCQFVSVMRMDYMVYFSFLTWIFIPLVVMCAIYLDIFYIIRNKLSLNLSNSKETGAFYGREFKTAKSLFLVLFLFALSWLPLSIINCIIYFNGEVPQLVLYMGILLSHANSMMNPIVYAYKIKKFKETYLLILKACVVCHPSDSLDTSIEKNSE
Note: assay procedure not described here.

Chain of Voltage-gated inwardly rectifying potassium channel KCNH2 (Q12809 whole entry): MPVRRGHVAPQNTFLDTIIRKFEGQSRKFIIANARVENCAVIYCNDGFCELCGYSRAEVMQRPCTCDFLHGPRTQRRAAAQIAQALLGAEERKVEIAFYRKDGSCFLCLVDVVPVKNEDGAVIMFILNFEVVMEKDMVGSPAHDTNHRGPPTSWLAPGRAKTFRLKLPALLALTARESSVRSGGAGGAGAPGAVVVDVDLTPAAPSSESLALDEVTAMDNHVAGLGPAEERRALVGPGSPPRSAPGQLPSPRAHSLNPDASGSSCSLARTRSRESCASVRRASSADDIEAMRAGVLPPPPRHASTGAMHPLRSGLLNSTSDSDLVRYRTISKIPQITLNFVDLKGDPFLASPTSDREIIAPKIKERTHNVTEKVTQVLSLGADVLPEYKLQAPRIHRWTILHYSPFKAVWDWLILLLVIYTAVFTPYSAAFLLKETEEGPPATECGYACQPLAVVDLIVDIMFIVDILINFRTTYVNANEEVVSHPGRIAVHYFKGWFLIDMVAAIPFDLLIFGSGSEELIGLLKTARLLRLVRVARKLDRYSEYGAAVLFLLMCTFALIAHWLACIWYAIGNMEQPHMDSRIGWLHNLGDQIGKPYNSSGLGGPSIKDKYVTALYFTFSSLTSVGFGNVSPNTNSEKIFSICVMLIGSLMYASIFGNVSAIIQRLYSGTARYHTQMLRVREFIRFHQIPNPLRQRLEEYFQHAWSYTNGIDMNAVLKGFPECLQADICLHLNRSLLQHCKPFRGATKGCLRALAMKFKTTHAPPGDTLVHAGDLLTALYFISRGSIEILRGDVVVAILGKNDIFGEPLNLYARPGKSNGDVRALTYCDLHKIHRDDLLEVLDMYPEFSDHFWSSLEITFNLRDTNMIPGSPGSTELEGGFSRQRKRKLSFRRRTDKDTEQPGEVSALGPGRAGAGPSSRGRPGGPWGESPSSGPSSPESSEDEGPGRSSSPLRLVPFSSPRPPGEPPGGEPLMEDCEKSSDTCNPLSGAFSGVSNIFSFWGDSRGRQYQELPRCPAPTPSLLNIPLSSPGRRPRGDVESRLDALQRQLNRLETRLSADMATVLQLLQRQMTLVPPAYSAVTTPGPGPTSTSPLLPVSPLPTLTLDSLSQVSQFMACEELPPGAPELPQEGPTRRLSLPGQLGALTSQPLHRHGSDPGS
Chain of Acetylcholinesterase (P22303 whole entry): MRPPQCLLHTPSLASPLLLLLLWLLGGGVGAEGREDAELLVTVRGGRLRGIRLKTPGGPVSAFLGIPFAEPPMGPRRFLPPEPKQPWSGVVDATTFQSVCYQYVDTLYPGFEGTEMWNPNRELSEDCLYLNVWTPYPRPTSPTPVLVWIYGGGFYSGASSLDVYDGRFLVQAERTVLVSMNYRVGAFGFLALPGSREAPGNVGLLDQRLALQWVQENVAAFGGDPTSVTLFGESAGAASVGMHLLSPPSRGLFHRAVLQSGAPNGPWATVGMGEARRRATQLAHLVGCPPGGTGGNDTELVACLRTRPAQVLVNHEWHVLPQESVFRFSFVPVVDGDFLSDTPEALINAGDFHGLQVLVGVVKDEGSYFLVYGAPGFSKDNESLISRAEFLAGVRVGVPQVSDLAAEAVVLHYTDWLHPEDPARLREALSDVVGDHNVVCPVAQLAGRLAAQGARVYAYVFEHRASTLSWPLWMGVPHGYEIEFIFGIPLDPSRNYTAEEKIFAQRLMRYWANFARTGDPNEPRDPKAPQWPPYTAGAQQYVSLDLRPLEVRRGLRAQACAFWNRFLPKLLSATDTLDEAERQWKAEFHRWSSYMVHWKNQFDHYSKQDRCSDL

| SMILES | AC50 [1] | AC50 [2] | AC50 [3] | AC50 [4] | AC50 [5] | AC50 [6] | AC50 [7] | AC50 [8] | AC50 [9] | AC50 [10] | AC50 [11] | AC50 [12] |
| --- | --- | --- | --- | --- | --- | --- | --- | --- | --- | --- | --- | --- |
| C[C@]12CC[C@H](O)CC1=CC[C@@H]1[C@@H]2CC[C@]2(C)C(c3cccnc3)=CC[C@@H]12 [ABIRATERONE] | > 30 µM | – | – | – | – | – | – | – | – | – | – | – |
| CN(C)C(=O)Oc1cc(OC(=O)N(C)C)cc(C(O)CNC(C)(C)C)c1 (stereo unspecified) [BAMBUTEROL] | 16 µM | – | – | – | – | – | – | – | – | – | – | – |
| CO[C@@]1(NC(=O)CSCC#N)C(=O)N2C(C(=O)O)=C(CSc3nnnn3C)CS[C@@H]21 [CEFMETAZOLE] | > 30 µM | > 30 µM | > 30 µM | > 30 µM | > 30 µM | > 30 µM | > 30 µM | > 30 µM | > 30 µM | > 30 µM | > 30 µM | – |
| NS(=O)(=O)c1cc(C2(O)NC(=O)c3ccccc32)ccc1Cl (stereo unspecified) [CHLORTHALIDONE] | > 30 µM | – | – | – | – | – | – | – | – | – | – | – |
| O=C(O)CC(O)(CC(=O)O)C(=O)O [CITRIC ACID] | – | > 30 µM | > 30 µM | > 30 µM | > 30 µM | > 30 µM | > 30 µM | > 30 µM | > 30 µM | > 30 µM | > 30 µM | > 30 µM |
| CC[C@H]1OC(=O)[C@H](C)[C@@H](O[C@H]2C[C@@](C)(OC)[C@@H](O)[C@H](C)O2)[C@H](C)[C@@H](O[C@@H]2O[C@H](C)C[C@H](N(C)C)[C@H]2O)[C@](C)(OC)C[C@@H](C)C(=O)[C@H](C)[C@@H](O)[C@]1(C)O [CLARITHROMYCIN] | > 30 µM | > 30 µM | > 30 µM | > 30 µM | > 30 µM | > 30 µM | > 30 µM | > 30 µM | > 30 µM | > 30 µM | > 30 µM | > 30 µM |
| C[C@@H]1CCC[C@H](C)N1NC(=O)c1ccc(Cl)c(S(N)(=O)=O)c1 [CLOPAMIDE] | > 30 µM | – | – | – | – | – | – | – | – | – | – | – |
| COc1ccc2c(c1)[C@]13CCCC[C@@H]1[C@H](C2)N(C)CC3 [DEXTROMETHORPHAN] | 21.1 µM | – | – | – | – | – | – | – | – | – | – | – |
| O=c1oc2ccccc2c(O)c1Cc1c(O)c2ccccc2oc1=O [DICUMAROL] | > 30 µM | – | – | – | – | – | – | – | – | – | – | – |
| C[C@H]1O[C@@H](O[C@H]2[C@@H](O)C[C@H](O[C@H]3[C@@H](O)C[C@H](O[C@H]4CC[C@@]5(C)[C@H](CC[C@@H]6[C@@H]5CC[C@]5(C)[C@@H](C7=CC(=O)OC7)CC[C@]65O)C4)O[C@@H]3C)O[C@@H]2C)C[C@H](O)[C@@H]1O [DIGITOXIN] | > 30 µM | > 30 µM | > 30 µM | > 30 µM | > 30 µM | > 30 µM | > 30 µM | > 30 µM | > 30 µM | > 30 µM | > 30 µM | > 30 µM |
| OC(CCCN1CCCCC1)(c1ccccc1)c1ccccc1 [DIPHENIDOL] | 16 µM | > 30 µM | > 30 µM | 0.944 µM | 2.15 µM | > 30 µM | 25.2 µM | > 30 µM | > 30 µM | > 30 µM | > 30 µM | > 30 µM |
| O=C(CCCN1CC=C(n2c(=O)[nH]c3ccccc32)CC1)c1ccc(F)cc1 [DROPERIDOL] | – | > 30 µM | > 30 µM | > 30 µM | > 30 µM | > 30 µM | > 30 µM | > 30 µM | > 30 µM | > 30 µM | > 30 µM | > 30 µM |
| CCn1cc(C(=O)O)c(=O)c2cc(F)c(N3CCNCC3)nc21 [ENOXACIN] | > 30 µM | > 30 µM | > 30 µM | > 30 µM | > 30 µM | > 30 µM | > 30 µM | > 30 µM | > 30 µM | > 30 µM | > 30 µM | > 30 µM |
| O=C(O)CSCC(=O)NC1CCSC1=O (stereo unspecified) [ERDOSTEINE] | > 30 µM | – | – | – | – | – | – | – | – | – | – | – |
| COc1cccc(N(C)C(=S)Oc2ccc3c(c2)CCCC3)n1 [LIRANAFTATE] | > 30 µM | – | – | – | – | – | – | – | – | – | – | – |
| C#C[C@]1(O)CC[C@H]2[C@@H]3CCc4cc(OC)ccc4[C@H]3CC[C@@]21C [MESTRANOL] | > 30 µM | – | – | – | – | – | – | – | – | – | – | – |
| N=C(N)c1ccc2cc(OC(=O)c3ccc(N=C(N)N)cc3)ccc2c1 [NAFAMOSTAT] | 3.3 µM | – | – | – | – | – | – | – | – | – | – | – |
| CNC(=O)Oc1ccc2c(c1)[C@]1(C)CCN(C)[C@@H]1N2C [PHYSOSTIGMINE] | > 30 µM | – | > 30 µM | > 30 µM | > 30 µM | > 30 µM | 5.74 µM | > 30 µM | > 30 µM | > 30 µM | > 30 µM | > 30 µM |
| O=C(O)c1cc(O)c2c3nc4ccccc4oc-3cc(=O)c2n1 [PIRENOXINE] | > 30 µM | – | – | – | – | – | – | – | – | – | – | – |
| NS(=O)(=O)c1cc(C(=O)O)cc(N2CCCC2)c1Oc1ccccc1 [PIRETANIDE] | > 30 µM | – | – | – | – | – | – | – | – | – | – | – |
| CNCCCC1c2ccccc2C=Cc2ccccc21 [PROTRIPTYLINE] | 1 µM | – | – | – | – | – | – | – | – | – | – | – |
| COCCCOc1ccnc(C[S+]([O-])c2nc3ccccc3[nH]2)c1C (stereo unspecified) [RABEPRAZOLE] | 5.33 µM | 16.7 µM | > 30 µM | > 30 µM | > 30 µM | – | 7.93 µM | > 30 µM | 17.9 µM | > 30 µM | > 30 µM | – |
| O=C(Oc1ccccc1C(=O)O)c1ccccc1O [SALSALATE] | > 30 µM | > 30 µM | > 30 µM | > 30 µM | > 30 µM | > 30 µM | > 30 µM | > 30 µM | > 30 µM | > 30 µM | > 30 µM | > 30 µM |
| CC(C)=CCOc1ccc(/C=C/C(=O)c2ccc(OCC=C(C)C)cc2OCC(=O)O)cc1 [SOFALCONE] | > 30 µM | – | – | – | – | – | – | – | – | – | – | – |
| O=C(CCCN1CCC2(CC1)C(=O)NCN2c1ccccc1)c1ccc(F)cc1 [SPIPERONE] | 0.22 µM | – | – | – | – | – | – | – | – | – | – | – |
| CN(C)c1cc(NC(=O)CNC(C)(C)C)c(O)c2c1C[C@H]1C[C@H]3[C@H](N(C)C)C(O)=C(C(N)=O)C(=O)[C@@]3(O)C(O)=C1C2=O [TIGECYCLINE] | > 30 µM | – | – | – | – | – | – | – | – | – | – | – |
| OCCN1CCN(CC/C=C2/c3ccccc3Sc3ccc(Cl)cc32)CC1 [ZUCLOPENTHIXOL] | 0.9 µM | – | – | – | – | – | – | – | – | – | – | – |
